Data reported in publication PMC9196629, “Synthesis, Characterization and Antitumor Mechanism Investigation of Heterometallic Ru(Ⅱ)-Re(Ⅰ) Complexes” (Frontiers in Chemistry, 2022).
Values joined by “and” are separate entries in the source; they are usually repeats but may differ in a detail not shown here. Identical values can stand only once.

Key:
Type in all cases: cell-based, human
PARP = assay: Western blot of apoptosis-related proteins; conditions: HeLa, different concentrations, 24 h
Description: (§1) Cysteine aspartate proteases play an important role in apoptosis, especially caspase-3 protein, which is one of the most important execution factors in the apoptotic pathway ([Wang X. et al., 2021]). The poly(ADP-ribose) polymerase (PARP) is associated with DNA repair and guardianship of genetic integrity ([Pandey and Black, 2021]). After treating HeLa cells with different concentrations of RuRe-1 or RuRe-2 for 24 h, the expression of caspase-3 and the caspase substrate PARP apoptotic protein were detected by western blot. […] It was further shown that RuRe-1 and RuRe-2 are activators of caspase-3, which can trigger apoptosis in HeLa cells.
(§2) FIGURE 4 Expression of apoptosis-related protein (caspase-3 and PARP) in HeLa cells treated with RuRe-1 and RuRe-2 for 24 h.
(§3) Western blot analysis. HeLa cells were plated into the 6-well plates, after treating with different doses of RuRe-1 and RuRe-2 for 24 h, the cells were collected and lysed. The protein concentration was determined using the BCA assay kit. Equal amounts of protein were ran on SDS-PAGE and then transferred to the PVDF membrane.

caspase-3 = assay: Western blot of apoptosis-related proteins; conditions: HeLa, different concentrations, 24 h
Description: as §1, §2, §3

HeLa cells [1] = assay: Cell cycle analysis by flow cytometry with PI staining; conditions: 24 h; for S cell cycle population: control 14.4 ± 0.9; for G2/M cell cycle population: control 21.4 ± 0.7; for G0/G1 cell cycle population: control 64.2 ± 1.3
Description: Cell cycle arrest studies provide a good understanding of cell apoptosis induced by metal drugs ([Sadoughi et al., 2021]). To further clarify the mechanism of apoptosis induced by RuRe-1 and RuRe-2, we analyzed the cell cycle of HeLa cells treated with RuRe-1 and RuRe-2 by flow cytometry with PI staining. […] A corresponding decrease in cell content in G1 and G2 phases was observed.
Cell cycle analysis. After HeLa cells were adhered to the 6-well plates, the medium was replaced with medium containing different concentrations of RuRe-1 and RuRe-2 for 24 h. Cells were collected and fixed for 24 h with pre-cooled 70% ethanol, then washed twice with PBS and finally stained with PI staining solution in a warm bath at 37 °C for 30 mins. The samples were detected by flow cytometry.

HeLa cells [2] = assay: Annexin V-FITC/PI double-staining apoptosis assay by flow cytometry; conditions: 24 h, control 1.81%
Description: The ability of RuRe-1 and RuRe-2 to induce apoptosis in HeLa cells was further verified using Annexin V-FITC/PI (FITC: fluorescein isothiocyanate; PI: propidium iodide) double-staining. In the early stage of apoptosis, the surface of the cell membrane is […], at which point the phosphatidylserine on the surface of the apoptotic cell flips from the inner cell membrane to the outer cell membrane, where it can be labelled by Annexin V ([Jan and Chaudhry, 2019]). The membrane permeability of PI is poor and thus only necrotic cells can be labelled ([Zec et al., 2014]).
FIGURE 3 RuRe-1 and RuRe-2 induced HeLa cells apoptosis measured by flow cytometry with Annexin V/PI staining. The incubation time of the compounds was 24 h. […]

F[P-](F)(F)(F)(F)F.F[P-](F)(F)(F)(F)F.F[P-](F)(F)(F)(F)F.[C-]#[O+].[C-]#[O+].[C-]#[O+].[Re+].[Ru+2].c1ccc(-c2ccccn2)nc1.c1ccc(-c2ccccn2)nc1.c1ccc(-c2ccnc3c2ccc2c(-c4ccccc4)ccnc23)cc1.c1cnc2c(c1)c1nc(-c3ccncc3)[nH]c1c1cccnc12 [RuRe-1, [Ru(bpy)2LRe(CO)3(DIP)](PF6)3]
cleavage of PARP (western blot) (PARP): induced the cleavage
cleavage of caspase-3 (western blot) (caspase-3): induced the cleavage
S cell cycle population (HeLa cells [1]; 6.2 μM): 12.5 ± 0.2%
G2/M cell cycle population (HeLa cells [1]; 6.2 μM): 18.7 ± 1.3%
G0/G1 cell cycle population (HeLa cells [1]; 6.2 μM): 68.8 ± 0.5%
S cell cycle population (HeLa cells [1]; 9.3 μM): 27.4 ± 0.9%
G2/M cell cycle population (HeLa cells [1]; 9.3 μM): 16.1 ± 1.1%
G0/G1 cell cycle population (HeLa cells [1]; 9.3 μM): 56.5 ± 1.1%
S cell cycle population (HeLa cells [1]; 12.4 μM): 33.8% and 33.8 ± 1.2%
G2/M cell cycle population (HeLa cells [1]; 12.4 μM): 14.5 ± 1.1%
G0/G1 cell cycle population (HeLa cells [1]; 12.4 μM): 51.7 ± 0.9%
percentage of apoptotic cells (early apoptotic + late apoptotic) (HeLa cells [2]; 12.4 μM): 22.38%

F[P-](F)(F)(F)(F)F.F[P-](F)(F)(F)(F)F.F[P-](F)(F)(F)(F)F.[C-]#[O+].[C-]#[O+].[C-]#[O+].[Re+].[Ru+2].c1ccc(-c2ccnc3c2ccc2c(-c4ccccc4)ccnc23)cc1.c1cnc2c(c1)c1nc(-c3ccncc3)[nH]c1c1cccnc12.c1cnc2c(c1)ccc1cccnc12.c1cnc2c(c1)ccc1cccnc12 [RuRe-2, [Ru(phen)2LRe(CO)3(DIP)](PF6)3]
cleavage of PARP (western blot) (PARP): induced the cleavage
cleavage of caspase-3 (western blot) (caspase-3): induced the cleavage
S cell cycle population (HeLa cells [1]; 5.0 μM): 16.8 ± 1.6%
G2/M cell cycle population (HeLa cells [1]; 5.0 μM): 17.9 ± 1.4%
G0/G1 cell cycle population (HeLa cells [1]; 5.0 μM): 65.3 ± 0.9%
S cell cycle population (HeLa cells [1]; 7.5 μM): 39.9 ± 1.5%
G2/M cell cycle population (HeLa cells [1]; 7.5 μM): 7.4 ± 0.5%
G0/G1 cell cycle population (HeLa cells [1]; 7.5 μM): 52.7 ± 1.3%
S cell cycle population (HeLa cells [1]; 10.0 μM): 40.0% and 40.0 ± 0.6%
G2/M cell cycle population (HeLa cells [1]; 10.0 μM): 7.6 ± 0.2%
G0/G1 cell cycle population (HeLa cells [1]; 10.0 μM): 52.4 ± 1.0%
percentage of apoptotic cells (early apoptotic + late apoptotic) (HeLa cells [2]; 10.0 μM): 22.26%
